Measurements from patent US12642270B2, “Substituted thiophene carboxamides, thiophene carboxylic acids and derivatives thereof” (Bayer Aktiengesellschaft, priority 2019, dated 2026).

Test: Log P by HPLC on reversed phase columns (EEC directive 79/831 Annex V.A8)
Type: physicochemical
Details: method [a]
Procedure: In the above tables, measurement of Log P values was performed according to EEC directive 79/831 Annex V.A8 by HPLC (High Performance Liquid Chromatography) on reversed phase columns with the following methods: • ^[a] Log P value is determined by measurement of LC-UV, in an acidic range, with 0.1% formic acid in water and acetonitrile as eluent (linear gradient from 10% acetonitrile to 95% acetonitrile). • ^[b] Log P value is determined by measurement of LC-UV, in a neutral range, with 0.001 molar ammonium acetate solution in water and acetonitrile as eluent (linear gradient from 10% acetonitrile to 95% acetonitrile). • ^[c] Log P value is determined by measurement of LC-UV, in an acidic range, with 0.1% phosphoric acid and acetonitrile as eluent (linear gradient from 10% acetonitrile to 95% acetonitrile). If more than one Log P value is available within the same method, all the values are given and separated by “+”. Calibration was done with straight-chain alkan2-ones (with 3 to 16 carbon atoms) with known Log P values (measurement of Log P values using retention times with linear interpolation between successive alkanones). Lambda-max-values were determined using UV-spectra from 200 nm to 400 nm and the peak values of the chromatographic signals.

[1] = compounds of formula (I), Table 1.1

Row | SMILES | LogP [1] | LogP
1 | CCOC(=O)C1(NC(=O)c2sc(Br)c(I)c2C)CCC1 [1.0090] | 3.77^[a] | 
2 | CCOC(=O)C(NC(=O)c1sc(Br)c(I)c1C)C(C)C (stereo not drawn) [1.0091] | 4.37^[a] | 
3 | COC(=O)C(CC(F)F)NC(=O)c1sc(Br)c(I)c1C (stereo not drawn) [1.0092] | 3.39^[a] | 
4 | CCOC(=O)C(CC(C)C)NC(=O)c1sc(Br)c(I)c1C (stereo not drawn) [1.0093] | 4.66^[a] | 
5 | CCOC(=O)C(CCSC)NC(=O)c1sc(Br)c(I)c1C (stereo not drawn) [1.0094] | 4.03^[a] | 
6 | CCOC(=O)C(Cc1ccccc1)NC(=O)c1sc(Br)c(I)c1C (stereo not drawn) [1.0095] | 4.53^[a] | 
7 | CCOC(=O)CNC(=O)c1sc(I)c(Br)c1C [1.0096] | 3.02^[a] | 
8 | CCOC(=O)CCNC(=O)c1sc(I)c(Br)c1C [1.0097] | 3.17^[a] | 
9 | CCOC(=O)C1(NC(=O)c2sc(I)c(Br)c2C)CC1 [1.0098] | 3.19^[a] | 
10 | CCOC(=O)C1(NC(=O)c2sc(I)c(Br)c2C)CCC1 [1.0099] | 3.71^[a] | 
11 | CCOC(=O)C(NC(=O)c1sc(I)c(Br)c1C)C(C)C (stereo not drawn) [1.0100] | 4.30^[a] | 
12 | COC(=O)C(CC(F)F)NC(=O)c1sc(I)c(Br)c1C (stereo not drawn) [1.0101] | 3.33^[a] | 
13 | CCOC(=O)C(CC(C)C)NC(=O)c1sc(I)c(Br)c1C (stereo not drawn) [1.0102] | 4.56^[a] | 
14 | CCOC(=O)C(CCSC)NC(=O)c1sc(I)c(Br)c1C (stereo not drawn) [1.0103] | 3.96^[a] | 
15 | CCOC(=O)C(Cc1ccccc1)NC(=O)c1sc(I)c(Br)c1C (stereo not drawn) [1.0104] | 4.46^[a] | 
16 | Cc1c(C(=O)NCC#N)sc(Cl)c1Br [1.0105] | 2.58^[a] | 
17 | Cc1c(C(=O)NC2(C#N)CC2)sc(Cl)c1Br [1.0106] | 2.78^[a] | 
18 | Cc1c(C(=O)NC2(C#N)CCC2)sc(Cl)c1Br [1.0107] | 4.53^[a] | 
19 | Cc1c(C(=O)NC(C#N)C(C)C)sc(Cl)c1Br (stereo not drawn) [1.0108] | 3.63^[a] | 
20 | Cc1c(C(=O)NC(C#N)c2ccccc2)sc(Cl)c1Br (stereo not drawn) [1.0109] | 3.85^[a] | 
21 | Cc1c(C(=O)NC(C#N)Cc2ccccc2)sc(Cl)c1Br (stereo not drawn) [1.0110] | 3.99^[a] | 
22 | Cc1c(C(=O)NCC#N)sc(Br)c1Cl [1.0111] | 2.54^[a] | 
23 | Cc1c(C(=O)NC2(C#N)CC2)sc(Br)c1Cl [1.0112] | 2.75^[a] | 
24 | Cc1c(C(=O)NC(C#N)c2ccccc2)sc(Br)c1Cl (stereo not drawn) [1.0113] | 3.81^[a] | 

Row | SMILES | LogP [1] | LogP
25 | Cc1c(C(=O)NC(C#N)Cc2ccccc2)sc(Br)c1Cl (stereo not drawn) [1.0114] | 3.92^[a] | 
26 | N#CC1(NC(=O)c2sc(Br)c(Br)c2F)CC1 [1.0115] | 2.64^[a] | 
27 | N#CC1(NC(=O)c2sc(Br)c(Br)c2F)CCC1 [1.0116] | 3.11^[a] | 
28 | N#CC(NC(=O)c1sc(Br)c(Br)c1F)c1ccccc1 (stereo not drawn) [1.0117] | 3.65^[a] | 
29 | N#CC(Cc1ccccc1)NC(=O)c1sc(Br)c(Br)c1F (stereo not drawn) [1.0118] | 3.81^[a] | 
30 | COC(=O)C(NC(=O)c1sc(Cl)c(Br)c1C)C1CC1 (stereo not drawn) [1.0119] | 3.39^[a] | 
31 | COC(=O)C(NC(=O)c1sc(Br)c(Cl)c1C)C1CC1 (stereo not drawn) [1.0120] | 3.35^[a] | 
32 | COC(=O)C(NC(=O)c1sc(Br)c(Br)c1F)C1CC1 (stereo not drawn) [1.0121] | 3.43^[a] | 
33 | CCOC(=O)C(C)NC(=O)c1sc(Cl)c(Br)c1C (stereo not drawn) [1.0122] | 3.37^[a] | 
34 | COC(=O)C(Cc1c[nH]cn1)NC(=O)c1sc(Cl)c(Br)c1C (stereo not drawn) [1.0124] | 1.48^[a] | 
35 | CCOC(=O)C(COC)NC(=O)c1sc(Cl)c(Br)c1C (stereo not drawn) [1.0125] | 3.44^[a] | 
36 | CCOC(=O)C(Cc1ccc(O)cc1)NC(=O)c1sc(Cl)c(Br)c1C (stereo not drawn) [1.0126] | 3.33^[a] | 
37 | COC(=O)[C@H](CCCNC(=N)N)NC(=O)c1sc(Cl)c(Br)c1C [1.0127] | 1,66^[a] | 
38 | CCOC(=O)C(Cc1c[nH]c2ccccc12)NC(=O)c1sc(Cl)c(Br)c1C (stereo not drawn) [1.0128] | 4.15^[a] | 
39 | COC(=O)C(Cc1c[nH]cn1)NC(=O)c1sc(Br)c(Cl)c1C (stereo not drawn) [1.0129] | 1.47^[a] | 
40 | CCOC(=O)C(Cc1ccc(O)cc1)NC(=O)c1sc(Br)c(Cl)c1C (stereo not drawn) [1.0130] | 3.29^[a] | 
41 | COC(=O)[C@H](CCCNC(=N)N)NC(=O)c1sc(Br)c(Cl)c1C [1.0131] | 1.71^[a] | 
42 | CCOC(=O)C(Cc1c[nH]c2ccccc12)NC(=O)c1sc(Br)c(Cl)c1C (stereo not drawn) [1.0132] |  | 4.11^[a]
43 | CCOC(=O)C(C)NC(=O)c1sc(Br)c(Br)c1F (stereo not drawn) [1.0133] |  | 3.41^[a]
44 | COC(=O)C(Cc1c[nH]cn1)NC(=O)c1sc(Br)c(Br)c1F (stereo not drawn) [1.0134] |  | 1.39^[a]
45 | CCOC(=O)C(COC)NC(=O)c1sc(Br)c(Br)c1F (stereo not drawn) [1.0135] |  | 3.46^[a]
46 | CCOC(=O)C(Cc1ccc(O)cc1)NC(=O)c1sc(Br)c(Br)c1F (stereo not drawn) [1.0136] |  | 3.31^[a]
47 | CCOC(=O)C(Cc1c[nH]c2ccccc12)NC(=O)c1sc(Br)c(Br)c1F (stereo not drawn) [1.0137] |  | 4.08^[a]
48 | CCOC(=O)C(COC)NC(=O)c1sc(Br)c(Cl)c1C (stereo not drawn) [1.0138] |  | 3.42^[a]

Row | SMILES | LogP [1] | LogP
49 | CCSC(=O)C1(NC(=O)c2sc(Br)c(Br)c2I)CC1 [1.0139] |  | 3.96^[a]
50 | CCOC(=O)C(C)NC(=O)c1sc(Br)c(Cl)c1C (stereo not drawn) [1.0140] |  | 3.35^[a]
51 | CCOC(=O)CNC(=O)c1sc(Br)c(Br)c1Cl [1.0142] |  | 3.30^[a]
52 | CCOC(=O)CCNC(=O)c1sc(Br)c(Br)c1Cl [1.0143] |  | 3.53^[a]
53 | CCOC(=O)C1(NC(=O)c2sc(Br)c(Br)c2Cl)CCC1 [1.0144] |  | 4.27^[a]
54 | CCOC(=O)C(NC(=O)c1sc(Br)c(Br)c1Cl)C(C)C (stereo not drawn) [1.0145] |  | 4.92^[a]
55 | COC(=O)C(CC(F)F)NC(=O)c1sc(Br)c(Br)c1Cl (stereo not drawn) [1.0146] |  | 3.62^[a]
56 | CCOC(=O)C(CC(C)C)NC(=O)c1sc(Br)c(Br)c1Cl (stereo not drawn) [1.0147] |  | 5.19^[a]
57 | CCOC(=O)C(CCSC)NC(=O)c1sc(Br)c(Br)c1Cl (stereo not drawn) [1.0148] |  | 4.46^[a]
58 | CCOC(=O)C(Cc1ccccc1)NC(=O)c1sc(Br)c(Br)c1Cl (stereo not drawn) [1.0149] |  | 5.00^[a]
59 | COC(=O)C1(NC(=S)c2sc(Br)c(Br)c2I)CC1 [1.0150] |  | 3.99^[a]
60 | CCOC(=O)[C@@H](NC(=O)c1sc(Br)c(Br)c1F)C(C)C [1.0151] |  | 4.47^[a]
61 | CCOC(=O)[C@H](NC(=O)c1sc(Br)c(Br)c1F)C(C)C [1.0152] |  | 4.47^[a]
62 | CCOC(=O)[C@@H](Cc1ccccc1)NC(=O)c1sc(Br)c(Br)c1F [1.0153] |  | 4.55^[a]
63 | CCOC(=O)[C@H](Cc1ccccc1)NC(=O)c1sc(Br)c(Br)c1F [1.0154] |  | 4.55^[a]
64 | COC(=O)[C@H](Cc1ccccc1)NC(=O)c1sc(Br)c(Br)c1F [1.0155] |  | 4.12^[a]
65 | CCOC(=O)[C@@H](CC(C)C)NC(=O)c1sc(Br)c(Br)c1F [1.0156] |  | 4.78^[a]
66 | COC(=O)[C@@H](CCSC)NC(=O)c1sc(Br)c(Br)c1F [1.0158] |  | 3.62^[a]
67 | COC(=O)[C@H](CCSC)NC(=O)c1sc(Br)c(Br)c1F [1.0159] |  | 3.62^[a]
68 | COC(=O)[C@H](CC(N)=O)NC(=O)c1sc(Br)c(Br)c1F [1.0160] |  | 1.94^[a]
69 | COC(=O)[C@@H](CC(N)=O)NC(=O)c1sc(Br)c(Br)c1F [1.0161] |  | 1.98^[a]
70 | COC(=O)C1(NC(=O)c2cc(Cl)c(Br)s2)CC1 [1.0162] |  | 2.48^[a]
71 | COC(=O)C1(NC(=O)c2sc(Br)c(Cl)c2C)CC1 [1.0163] |  | 2.76^[a]
72 | COC(=O)C1(NC(=O)c2cc(Br)c(Cl)s2)CC1 [1.0164] |  | 2.51^[a]

Row | SMILES | LogP [1] | LogP
73 | COC(=O)C1(NC(=O)c2sc(Cl)c(Br)c2C)CC1 [1.0165] |  | 2.80^[a]
74 | CCOC(=O)C1(NC(=O)c2sc(Br)c(Br)c2F)CCC1 [1.0166] |  | 3.78^[a]
75 | CCOC(=O)CN(C)C(=O)c1sc(Br)c(Br)c1F [1.0167] |  | 3.09^[a]
76 | Cc1c(C(=O)NC2(C(=O)O)CC2)sc(Br)c1Cl [1.0168] |  | 2.20^[a]
77 | O=C(NC1(C(=O)O)CC1)c1cc(Br)c(Cl)s1 [1.0169] |  | 2.02^[a]
78 | Cc1c(C(=O)NC2(C(=O)O)CC2)sc(Cl)c1Br [1.0170] |  | 2.21^[a]
79 | CCOC(=O)C(C(C)C)N(C)C(=O)c1sc(Br)c(Br)c1F (stereo not drawn) [1.0171] |  | 4.39^[a]
80 | O=C(NC1(C(=O)O)CCC1)c1sc(Br)c(Br)c1F [1.0172] |  | 2.62^[a]
81 | O=C(O)C1(NC(=S)c2sc(Br)c(Br)c2I)CC1 [1.0173] |  | 3.09^[a]
82 | NC(=O)C1(NC(=O)c2sc(Br)c(Br)c2F)CC1 [1.0174] |  | 1.94^[a]
83 | CCOC(=O)C(NC(=O)c1sc(Br)c(Br)c1F)c1ccccc1 (stereo not drawn) [1.0175] |  | 4.47^[a]
84 | N#CCNC(=O)c1sc(Cl)c(Br)c1Cl [1.0176] |  | 2.70^[a]
85 | COC(=O)CNC(=O)c1sc(Cl)c(Br)c1Cl [1.0177] |  | 2.85^[a]
86 | CCOC(=O)CNC(=O)c1sc(Cl)c(Br)c1Cl [1.0178] |  | 3.37^[a]
87 | CCOC(=O)CCNC(=O)c1sc(Cl)c(Br)c1Cl [1.0179] |  | 3.54^[a]
88 | CCOC(=O)C1(NC(=O)c2sc(Cl)c(Br)c2Cl)CC1 [1.0180] |  | 3.47^[a]
89 | COC(=O)C(NC(=O)c1sc(Cl)c(Br)c1Cl)C1CC1 (stereo not drawn) [1.0181] |  | 3.91^[a]
90 | CCOC(=O)C1(NC(=O)c2sc(Cl)c(Br)c2Cl)CCC1 [1.0182] |  | 4.33^[a]
91 | CCOC(=O)C(NC(=O)c1sc(Cl)c(Br)c1Cl)C(C)C (stereo not drawn) [1.0183] |  | 4.97^[a]
92 | COC(=O)C(CC(F)F)NC(=O)c1sc(Cl)c(Br)c1Cl (stereo not drawn) [1.0184] |  | 3.64^[a]
93 | CCOC(=O)C(CC(C)C)NC(=O)c1sc(Cl)c(Br)c1Cl (stereo not drawn) [1.0185] |  | 5.20^[a]
